Source: patent publication US12559504B2, “Benzotriazole derivative” (UBE CORPORATION, priority 2019, dated 2026)

Tests used:
[1] = target: T1, GST fusion human Keap1 (amino acid residue: 325-624) protein (Homo sapiens, UniProt Q14145); assay: Keap1-Nrf2 binding inhibition test (fluorescence polarization); settings: compound concentration of 100 nM; read-out: inhibition rate
T1 construct: GST fusion human Keap1 (amino acid residue: 325-624) protein; purchased Protein tech Ag0779
Procedure, shortened: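 Fluorescence polarization with FITC-labelled Nrf2 peptide (FITC-Ahx-LDEETGEFL-NH2) and GST-human Keap1 (325-624) in 20 mM Tris pH 7.5, 150 mM NaCl, 0.05% Tween 20, 5 mM DTT, BSA; 30 min at room temperature, ex 482/em 530 nm. Percent inhibition at 100 nM compound, Keap1-free wells = 100%.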

[2] = tested on: NQO1; assay: NQO1 enzyme induction test (in vitro) in Hepa1c1c7 cells; format: cell-based; settings: Mus musculus, Hepa-1c1c7, 48 h, concentration to elevate the NQO1 activity by 1.5 times, about 48 hours, read-out: EC150
Procedure, shortened: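 Mouse Hepa1c1c7 cells treated about 48 h with compound (0.1% DMSO final), then lysed. NQO1 activity read as MTT reduction at 540 nm with menadione substrate, 5 min at room temperature, and corrected for cell number by CellTiter-Glo. EC150 is the concentration raising NQO1 activity 1.5-fold.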

[3] = tested on: NQO1; assay: NQO1 expression induction test in mouse kidney (single administration); format: in vivo; settings: Mus musculus, po, 6 h, Dose 30 mg/kg, BALB/c mouse kidney, 6 hours after administration, ratio to control group
Procedure, shortened: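 Female BALB/c mice received a single oral dose of compound in 0.5% methylcellulose, with untreated mice as controls. Six hours later, left-kidney NQO1 mRNA was measured by SYBR real-time RT-PCR normalised to GAPDH. Induction was expressed as the ratio of mean treated to mean control expression.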

[4] = Metabolism test using human liver microsome fractions; format: in vitro ADME; settings: human liver microsomes, test compound 10 μmol/L, NADPH and UDP-glucuronic acid, 37° C.
Procedure, shortened: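 Human or monkey liver microsomes (1 mg protein) with NADPH-regenerating system plus UDP-glucuronic acid/UGT mix, 37 °C; compound at 10 μmol/L final. Samples at 0–30 min quenched in acetonitrile, UV-HPLC; elimination rate (pmol/min/mg-P) from linear slope of residual amount over time.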

T1 sequence (Q14145 325-624): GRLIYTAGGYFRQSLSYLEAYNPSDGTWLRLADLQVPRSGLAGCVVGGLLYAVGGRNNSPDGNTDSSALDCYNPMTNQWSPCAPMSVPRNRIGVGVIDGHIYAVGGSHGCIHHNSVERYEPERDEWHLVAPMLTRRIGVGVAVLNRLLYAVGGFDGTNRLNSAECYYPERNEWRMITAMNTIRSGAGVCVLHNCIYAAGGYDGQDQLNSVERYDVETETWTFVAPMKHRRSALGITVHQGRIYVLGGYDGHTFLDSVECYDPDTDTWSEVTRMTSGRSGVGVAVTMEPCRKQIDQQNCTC

Row | Structure (SMILES) | inhibition at 0.1 µM [1] [%] | EC (1.5-fold NQO1 activity) [2] [µM] | fold induction at 30 mg/kg [3] | Human metabolic rate [4]
1 | CC[C@@H]1CN(Cc2cc(C(c3ccc4c(nnn4C)c3C)C(C)(C)C(=O)O)ccc2C)Cc2cc3ncccc3cc2O1 (stereo partly drawn) [Example 12-(b), 3-(1,4-dimethyl-1H-benzo[d][1,2,3]triazol-5-yl)-3-(3-(((R)-2-ethyl-2,3-dihydro-[1,4]oxazepino[7,6-g]quinolin-4 (5H)-yl)methyl)-4-methylphenyl)-2,2-dimethylpropanoic Acid] | ≥ 50 | 0.0005 to 0.005 | > 6 | D (200≤metabolic rate<250 pmol/min/me protein)
2 | CC[C@@H]1CN(Cc2cc(C(c3ccc4c(nnn4C)c3C)C(C)(C)C(=O)O)ccc2C)Cc2cc3cccc(C)c3nc2O1 (stereo partly drawn) [Example 13-(b), 3-(1,4-dimethyl-1H-benzo[d][1,2,3]triazol-5-yl)-3-(3-(((R)-2-ethyl-10-methyl-2,3-dihydro-[1,4]oxazepino[7,6-b]quinolin-4 (5H)-yl)methyl)-4-methylphenyl)-2,2-dimethylpropanoic Acid] | ≥ 50 | 0.0005 to 0.005 | 3 to 6 | E (metabolic rate≥250 pmol/min/mg protein)
3 | CC[C@@H]1CN(Cc2cc(C(c3ccc4c(nnn4C)c3C)C(C)(C)C(=O)O)ccc2C)Cc2cc3cn[nH]c3cc2O1 (stereo partly drawn) [Example 15-(b), 3-(1,4-dimethyl-1H-benzo[d][1,2,3]triazol-5-yl)-3-(3-(((R)-8-ethyl-1,5,7,8-tetrahydro-6H-[1,4]oxazepino[6,7-f]indazol-6-yl)methyl)-4-methylphenyl)-2,2-dimethylpropanoic Acid] | ≥ 50 | 0.0005 to 0.005 | 3 to 6 | E (metabolic rate≥250 pmol/min/mg protein)
4 | CC[C@@H]1CN(Cc2cc(C(c3ccc4c(nnn4C)c3C)C(C)(C)C(=O)O)ccc2C)Cc2c(ccc3ccccc23)O1 (stereo partly drawn) [Example 16-(b), 3-(1,4-dimethyl-1H-benzo[d][1,2,3]triazol-5-yl)-3-(3-(((R)-4-ethyl-3,4-dihydronaphtho[1,2-f][1,4]oxazepin-2(1H)-yl)methyl)-4-methylphenyl)-2,2-dimethylpropanoic Acid] | ≥ 50 | 0.05 to 0.5 | ≤ 3 | E (metabolic rate≥250 pmol/min/mg protein)
5 | CC[C@@H]1CN(Cc2cc(C(c3ccc4c(nnn4C)c3C)C(C)(C)C(=O)O)ccc2C)Cc2c(ccc3cccnc23)O1 (stereo partly drawn) [Example 17-(b), 3-(1,4-dimethyl-1H-benzo[d][1,2,3]triazol-5-yl)-3-(3-(((R)-8-ethyl-8,9-dihydro-[1,4]oxazepino[7,6-h]quinolin-10 (11H)-yl)methyl)-4-methylphenyl)-2,2-dimethylpropanoic Acid] | ≥ 50 | 0.005 to 0.05 | 3 to 6 | E (metabolic rate≥250 pmol/min/mg protein)
6 | CC[C@@H]1CN(Cc2cc(C(c3ccc4c(nnn4C)c3C)C(C)(C)C(=O)O)ccc2C)Cc2c(ccc3ncccc23)O1 (stereo partly drawn) [Example 18-(b), 3-(1,4-dimethyl-1H-benzo[d][1,2,3]triazol-5-yl)-3-(3-(((R)-4-ethyl-3,4-dihydro-[1,4]oxazepino[6,7-f]quinolin-2(1H)-yl)methyl)-4-methylphenyl)-2,2-dimethylpropanoic Acid] | ≥ 50 | 0.005 to 0.05 | 3 to 6 | E (metabolic rate≥250 pmol/min/mg protein)
7 | CC[C@@H]1CN(Cc2cc(C(c3ccc4c(nnn4C)c3C)C(C)(C)C(=O)O)ccc2C)Cc2c(cnc3ccccc23)O1 (stereo partly drawn) [Example 19-(b), 3-(1,4-dimethyl-1H-benzo[d][1,2,3]triazol-5-yl)-3-(3-(((R)-4-ethyl-3,4-dihydro-[1,4]oxazepino[7,6-c]quinolin-2(1H)-yl)methyl)-4-methylphenyl)-2,2-dimethylpropanoic Acid] | ≥ 50 | 0.0005 to 0.005 | ≤ 3 | E (metabolic rate≥250 pmol/min/mg protein)
8 | CC[C@@H]1CN(Cc2cc(C(c3ccc4c(nnn4C)c3C)C(C)(C)C(=O)O)ccc2C)Cc2c(ccc3cnn(C)c23)O1 (stereo partly drawn) [Example 21-(b), 3-(1,4-dimethyl-1H-benzo[d][1,2, 3)triazol-5-yl)-3-(3-(((R)-7-ethyl-1-methyl-1,7,8,10-tetrahydro-9H-(1,4]oxazepino[7,6-g]indazol-9-yl)methyl)-4-methylphenyl)-2,2-dimethylpropanoic Acid] | ≥ 50 | 0.05 to 0.5 | ≤ 3 | D (200≤metabolic rate<250 pmol/min/me protein)
9 | CC[C@@H]1CN(Cc2cc(C(c3ccc4c(nnn4C)c3C)C(C)(C)C(=O)O)ccc2C)Cc2c(ccc3cn(C)nc23)O1 (stereo partly drawn) [Example 22-(b), 3-(1,4-dimethyl-1H-benzo[d][1,2, 3)triazol-5-yl)-3-(3-(((R)-7-ethyl-2-methyl-2,7,8,10-tetrahydro-9H-(1,4]oxazepino[7,6-g]indazol-9-yl)methyl)-4-methylphenyl)-2,2-dimethylpropanoic Acid] | ≥ 50 | 0.0005 to 0.005 | > 6 | B (100≤metabolic rate<150 pmol/min/mg protein)
10 | CC[C@@H]1CN(Cc2cc(C(c3ccc4c(nnn4C)c3C)C(C)(C)C(=O)O)ccc2C)Cc2ncc3ccccc3c2O1 (stereo partly drawn) [Example 25-(b), 3-(1,4-dimethyl-1H-benzo[d][1,2,3]triazol-5-yl)-3-(3-(((R)-2-ethyl-2,3-dihydro-[1,4]oxazepino[6,7-c]isoquinolin-4(5H)-yl)methyl)-4-methylphenyl)-2,2-dimethylpropanoic Acid] | ≥ 50 | 0.0005 to 0.005 | > 6 | D (200≤metabolic rate<250 pmol/min/me protein)
11 | CC[C@@H]1CN(Cc2cc(C(c3ccc4c(nnn4C)c3C)C(C)(C)C(=O)O)ccc2C)Cc2cnc3ccccc3c2O1 (stereo partly drawn) [Example 26-(b), 3-(1,4-dimethyl-1H-benzo[d][1,2,3]triazol-5-yl)-3-(3-(((R)-2-ethyl-2,3-dihydro-[1,4]oxazepino[6,7-c]quinolin-4(5H)-yl)methyl)-4-methylphenyl)-2,2-dimethylpropanoic Acid] | ≥ 50 | 0.0005 to 0.005 | > 6 | E (metabolic rate≥250 pmol/min/mg protein)
12 | CC[C@@H]1CN(Cc2cc(C(c3ccc4c(nnn4C)c3C)C(C)(C)C(=O)O)ccc2C)Cc2cc(F)c3ccccc3c2O1 (stereo partly drawn) [Example 49-(b), 3-(1,4-dimethyl-1H-benzo[d](1,2, 3)triazol-5-yl)-3-(3-(((R)-2-ethyl-7-fluoro-2,3-dihydronaphtho[2,1-f][1,4]oxazepin-4 (5H)-yl)methyl)-4-methylphenyl)-2,2-dimethylpropanoic Acid] | ≥ 50 | 0.0005 to 0.005 | > 6 | B (100≤metabolic rate<150 pmol/min/mg protein)
13 | CC[C@@H]1CN(Cc2cc(C(c3ccc4c(nnn4C)c3C)C(C)(C)C(=O)O)ccc2C)Cc2cc3cnn(C)c3cc2O1 (stereo partly drawn) [Example 50-(b), 3-(1,4-dimethyl-1H-benzo[d][1,2,3]triazol-5-yl)-3-(3-(((R)-8-ethyl-1-methyl-1,5,7,8-tetrahydro-6H-[1,4]oxazepino[6,7-f]indazol-6-yl)methyl)-4-methylphenyl)-2,2-dimethylpropanoic Acid] | ≥ 50 | 0.0005 to 0.005 | > 6 | C (150≤metabolic rate<200 pmol/min/mg protein)
14 | CC[C@@H]1CN(Cc2cc(C(c3ccc4c(nnn4C)c3C)C(C)(C)C(=O)O)ccc2C)Cc2cc3cn(C)nc3cc2O1 (stereo partly drawn) [Example 51-(b), 3-(1,4-dimethyl-1H-benzo[d][1,2,3]triazol-5-yl)-3-(3-(((R)-8-ethyl-2-methyl-2,5,7,8-tetrahydro-6H-[1,4]oxazepino[6,7-f]indazol-6-yl)methyl)-4-methylphenyl)-2,2-dimethylpropanoic Acid] | ≥ 50 | 0.0005 to 0.005 | > 6 | B (100≤metabolic rate<150 pmol/min/mg protein)
15 | CC[C@@H]1CN(Cc2cc(C(c3ccc4c(nnn4C)c3C)C(C)(C)C(=O)O)ccc2C)Cc2cc3ccncc3cc2O1 (stereo partly drawn) [Example 52-(b), 3-(1,4-dimethyl-1H-benzo[d][1,2, 3]triazol-5-yl)-3-(3-(((R)-2-ethyl-2,3-dihydro-[1,4]oxazepino[6,7-g]isoquinolin-4 (5H)-yl)methyl)-4-methylphenyl)-2,2-dimethylpropanoic Acid] | ≥ 50 | 0.0005 to 0.005 | > 6 | C (150≤metabolic rate<200 pmol/min/mg protein)
